From patent US20260022118A1, “HETEROCYCLIC COMPOUNDS AS NRAS INHIBITORS” (Board of Regents, The University of Texas System, priority 2023, published 2026)
pIC50, pKd: −log10 of the molar value.

test system: THP-1 cells expressing G12D (NRAS G12D); experiment: Inhibition of NRAS G12D-mediated phosphorylation of ERK (AlphaLISA p-ERK1/2) in THP-1 cells; format: cell-based; details: Homo sapiens, THP-1, 2 h, 2 hours incubation, HBSS with 0% or 10% FBS, p-ERK1/2 (Thr202/Tyr204) AlphaLISA, read-out: pERK THP-1 IC50
Experimental: Inhibition of NRAS G12D-Mediated Phosphorylation of ERK by Exemplary Compounds of Formulas I, II, and III.
This Example illustrates that exemplary compounds and salts thereof described herein inhibit the phosphorylation of ERK downstream of NRAS G12D.
THP-1 cells (ATCC TIB-202) expressing G12D were maintained in RPMI-1640 medium supplemented with 10% fetal bovine serum (FBS), 0.05 mM 2-mercaptoethanol, and penicillin/streptomycin. Cells (20,000/well) were seeded onto a 384 well plate in 20 μL of HBSS supplemented with 0% or 10% FBS. Cells were incubated in the absence or presence of various concentrations of test compound (final 1% DMSO) for 2 hours. p-ERK expression was assessed using the AlphaLISA SureFire Ultra p-ERK1/2 (Thr202/Tyr204) (PerkinElmer®, ALSU-PERK-A10K) following manufacturer recommendation. Plates were read on a PerkinElmer® Envision Multimode plate reader. Dose-response curves were analyzed using IC50 regression curve fitting (GeneData Screener). Curves were plotted as a percent control and normalized by high controls without inhibitor (100%), and low controls (0%) containing 1 μM of trametinib, a potent MEK inhibitor.

| SMILES | pIC50 |
| --- | --- |
| C#Cc1c(F)ccc2cc(O)cc(-c3ncc4c([C@H]5[C@@H]6CNC[C@@H]65)nn(C)c4c3F)c12 [Example 3, 4-(3-((1R,5S,6r)-3-azabicyclo[3.1.0]hexan-6-yl)-7-fluoro-1-methyl-1H-pyrazolo[4,3-c]pyridin-6-yl)-5-ethynyl-6-fluoronaphthalen-2-ol] | 6.03 |
| C#Cc1c(F)ccc2cc(O)cc(-c3ncc4c([C@H]5[C@@H]6CNC[C@@H]65)nn(C5CC5)c4c3F)c12 [Example 4, 4-(3-((1R,5S,6r)-3-azabicyclo[3.1.0]hexan-6-yl)-1-cyclopropyl-7-fluoro-1H-pyrazolo[4,3-c]pyridin-6-yl)-5-ethynyl-6-fluoronaphthalen-2-ol 2,2,2-trifluoroacetate] | 6.40 |

target: NRAS G12D C118S (Homo sapiens (Human), UniProt P01111, C118S/G12D); experiment: NRas G12D Surface Plasmon Resonance (SPR) binding assay; details: Avi-tagged biotinylated NRAS G12D C118S on streptavidin chip, 25° C., 1:1 kinetic or steady-state fit
Experimental: NRas G12D Surface Plasmon Resonance (SPR) Binding Assay
This Example illustrates that exemplary compounds and salts thereof described herein bind to NRAS G12D as measured by surface plasmon resonance (SPR).
Two liters of 1.03× running buffer (1.03×HBS-P+pH 7.4, containing 0.0103 M HEPES, 0.1545 M NaCl, 0.0515% v/v Surfactant P20 (Cytiva®, BR100671); 5.15 mM MgCl2 (Invitrogen, AM9530G); 0.515 mM TCEP, pH 8.0 (GoldBio®, TCEP25)) was prepared and filter sterilized using a 0.22 μm filter. A 1-L volumetric flask was filled partway with this buffer. A 30-mL volumetric flask was used to measure 30 mL of 100% DMSO (Sigma Aldrich®, 41639-100ML) which was added to the 1-L flask. The solution in the 1-L flask was brought up to 1 L with 1.03× buffer, resulting in a 1.0× assay running buffer containing 1.0×HBS-P+, 5 mM MgCl2, […], and 3% DMSO. Remaining 1.03× buffer was used for preparation of samples and immobilization running buffer.
Samples were prepared in a standard conical-bottomed 384-well microplate by adding 2 μL 10 mM DMSO cpd stock to each well, followed by 8 μL DMSO. A control compound was selected based off of its relatively “fast” kinetics that could be fitted by 1:1 kinetic fitting, as well as by steady-state fitting. Control wells for periodic injection to assess protein activity throughout the assay were also assembled, by diluting 10 mM compound 1:30 in DMSO, then adding 20 μL to the appropriate wells, such that the final concentration of compound would be 10 μM, and the final concentration of DMSO would be 3%. A Biomek™ FXP Laboratory Automation Workstation was used to stamp 20 μL DMSO into all sample wells—minus the control wells—according to the plate map, and then serially dilute 1:3 by mixing and aspirating 10 μL, delivering into the 20 μL of DMSO in the next well, resulting in 10-point serial dilution curves. A Biotek™ Multiflo EL406 Washer Dispenser was used to deliver 80 μL of 1.03× buffer to the compound plate. The plate was mixed 10× by FX, then a final dilution was performed by stamping 18 μL from the compound plate into a 384-well deep-well plate that had also been previously filled with 102 μL 1.03× buffer via the Multiflo. The solution in the deep-well plate was mixed 10× by FX, then sealed with a 384-well microplate foil from Cytiva® (Cytiva® BR100577) and placed on an orbital shaker for 30 minutes at 1000 RPM to ensure complete mixing of the DMSO solution in the buffer. A solvent correction curve was also prepared by making a 4% DMSO solution in 1.03× buffer and diluting in 1.03× buffer such that there were eight solutions of decreasing DMSO concentrations resulting in a high DMSO concentration of 4% and a low concentration of 2% DMSO.
Immobilization running buffer was prepared in a 200-mL volume by diluting 1.03× running buffer prepared above to 1.0×. A Cytiva® Streptavidin chip (Cytiva®, 29104992) was docked into a Biacore™ S200 instrument, and the instrument was then primed three times into the immobilization running buffer. A protein stock of Avi-tagged NRAS G12D C118S was prepared in-house and biotinylated using the Bulk BirA: BirA biotin-protein ligase bulk reaction kit from Avidity (Avidity®, Bulk BirA). Upon completion of the biotinylation reaction, Amicon® ultra 0.5-mL Centrifugal Filters with a MWCO of 3 k Da (Millipore® UFC500396) were used to reduce the free biotin concentration below 0.1 μM in the protein sample over the course of eight desalting cycles, according to the manufacturer's protocol. Resulting protein concentration was not measured directly as an accurate protein concentration is not required for immobilizing protein on the chip surface; however, a theoretical yield of ≤1.5 mg/mL was estimated based off of retained volumes during the desalting process. Reagents for immobilization were prepared as instructed in the Biacore™ 5200 Control Software Immobilization Wizard, including solutions of 1 M NaCl in 50 mM NaOH, and 1 M NaCl in 50 mM NaOH and 50% isopropyl alcohol. […]

NRAS G12D C118S, sequence (P01111 whole entry G12D/C118S): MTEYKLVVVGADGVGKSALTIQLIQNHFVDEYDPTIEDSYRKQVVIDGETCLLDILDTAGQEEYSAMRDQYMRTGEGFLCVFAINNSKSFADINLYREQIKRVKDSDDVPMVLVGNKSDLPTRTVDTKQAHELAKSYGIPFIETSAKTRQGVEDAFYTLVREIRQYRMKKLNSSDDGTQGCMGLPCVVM

| SMILES | pKd |
| --- | --- |
| C#Cc1c(F)ccc2cc(O)cc(-c3ncc4c([C@H]5[C@@H]6CNC[C@@H]65)cn(C)c4c3F)c12 [Example 2, 4-(3-((1R,5S,6S)-3-azabicyclo[3.1.0]hexan-6-yl)-7-fluoro-1-methyl-1H-pyrrolo[3,2-c]pyridin-6-yl)-5-ethynyl-6-fluoronaphthalen-2-ol 2,2,2-trifluoroacetate] | 7.28 |
| C#Cc1c(F)ccc2cc(O)cc(-c3ncc4c([C@H]5[C@@H]6CNC[C@@H]65)nn(C)c4c3F)c12 [Example 3, 4-(3-((1R,5S,6r)-3-azabicyclo[3.1.0]hexan-6-yl)-7-fluoro-1-methyl-1H-pyrazolo[4,3-c]pyridin-6-yl)-5-ethynyl-6-fluoronaphthalen-2-ol] | 7.07 |
| C#Cc1c(F)ccc2cc(O)cc(-c3ncc4c([C@H]5[C@@H]6CNC[C@@H]65)nn(C5CC5)c4c3F)c12 [Example 4, 4-(3-((1R,5S,6r)-3-azabicyclo[3.1.0]hexan-6-yl)-1-cyclopropyl-7-fluoro-1H-pyrazolo[4,3-c]pyridin-6-yl)-5-ethynyl-6-fluoronaphthalen-2-ol 2,2,2-trifluoroacetate] | 7.69 |
| C#Cc1c(F)ccc2cc(O)cc(-c3cc4c(cn3)c(N3CC5CCC(C3)N5)nn4CC)c12 [Example 6, 4-(3-(3,8-diazabicyclo[3.2.1]octan-3-yl)-1-ethyl-1H-pyrazolo[4,3-c]pyridin-6-yl)-5-ethynyl-6-fluoronaphthalen-2-ol] | 5.09 |
| C#Cc1c(F)ccc2cc(O)cc(-c3cc4c(cn3)c(N3CC5CCC(C3)N5)nn4CCC)c12 [Example 7, 4-(3-(3,8-diazabicyclo[3.2.1]octan-3-yl)-1-propyl-1H-pyrazolo[4,3-c]pyridin-6-yl)-5-ethynyl-6-fluoronaphthalen-2-ol] | 5.32 |
| C#Cc1c(F)ccc2cc(O)cc(-c3ncc4c(C5=CC6CCC(C5)N6)nn(CC)c4c3F)c12 (centres unmarked) [Example 9, 4-(3-(8-azabicyclo[3.2.1]oct-2-en-3-yl)-1-ethyl-7-fluoro-1H-pyrazolo[4,3-c]pyridin-6-yl)-5-ethynyl-6-fluoronaphthalen-2-ol] | 4.79 |
| C#Cc1c(F)ccc2cc(O)cc(-c3ncc4c(N5CCNCC5)nn(CC)c4c3F)c12 [Example 10, 4-(1-ethyl-7-fluoro-3-(piperazin-1-yl)-1H-pyrazolo[4,3-c]pyridin-6-yl)-5-ethynyl-6-fluoronaphthalen-2-ol] | 4.41 |
| C#Cc1c(F)ccc2cc(O)cc(-c3ncc4c(N[C@H]5[C@@H]6CNC[C@@H]65)nn(CC)c4c3F)c12 [Example 11, 4-(3-(((1R,5S,6s)-3-azabicyclo[3.1.0]hexan-6-yl)amino)-1-ethyl-7-fluoro-1H-pyrazolo[4,3-c]pyridin-6-yl)-5-ethynyl-6-fluoronaphthalen-2-ol] | 4.51 |
| C#Cc1c(F)ccc2cc(O)cc(-c3ncc4c(NCC5(N(C)C)CCC5)nn(CC)c4c3F)c12 [Example 12, 4-(3-(((1-(dimethylamino)cyclobutyl)methyl)amino)-1-ethyl-7-fluoro-1H-pyrazolo[4,3-c]pyridin-6-yl)-5-ethynyl-6-fluoronaphthalen-2-ol] | 5.08 |
| C#Cc1c(F)ccc2cc(O)cc(-c3ncc4c(N5CC6CCC(C5)N6)nn(CCC)c4c3F)c12 [Example 14, 4-(3-(3,8-diazabicyclo[3.2.1]octan-3-yl)-7-fluoro-1-propyl-1H-pyrazolo[4,3-c]pyridin-6-yl)-5-ethynyl-6-fluoronaphthalen-2-ol] | 5.36 |
| C#Cc1c(F)ccc2cc(O)cc(-c3ncc4c(N5CC6CCC(C5)N6)nn(CC5CCOC5)c4c3F)c12 (centres unmarked) [Example 15, 4-(3-(3,8-diazabicyclo[3.2.1]octan-3-yl)-7-fluoro-1-((tetrahydrofuran-3-yl)methyl)-1H-pyrazolo[4,3-c]pyridin-6-yl)-5-ethynyl-6-fluoronaphthalen-2-ol] | 5.22 |
| C#Cc1c(F)ccc2cc(O)cc(-c3ncc4c(N5CC6CCC(C5)N6)nn(C5CCC5)c4c3F)c12 [Example 16, 4-(3-(3,8-diazabicyclo[3.2.1]octan-3-yl)-1-cyclobutyl-7-fluoro-1H-pyrazolo[4,3-c]pyridin-6-yl)-5-ethynyl-6-fluoronaphthalen-2-ol] | 5.25 |
| C#Cc1c(F)ccc2cc(O)cc(-c3ncc4c(N5CC6CCC(C5)N6)n[nH]c4c3F)c12 [Example 17, 4-(3-(3,8-diazabicyclo[3.2.1]octan-3-yl)-7-fluoro-1H-pyrazolo[4,3-c]pyridin-6-yl)-5-ethynyl-6-fluoronaphthalen-2-ol] | 4.51 |
| C#Cc1c(F)ccc2cc(O)cc(-c3cc4[nH]nc(N5CC6CCC(C5)N6)c4cn3)c12 [Example 18, 4-(3-(3,8-diazabicyclo[3.2.1]octan-3-yl)-1H-pyrazolo[4,3-c]pyridin-6-yl)-5-ethynyl-6-fluoronaphthalen-2-ol] | 4.39 |
| C#Cc1c(F)ccc2cc(O)cc(-c3cc4c(cn3)c(N3C5CCC3CNC5)nn4C)c12 [Example 19, 4-(3-(3,8-diazabicyclo[3.2.1]octan-8-yl)-1-methyl-1H-pyrazolo[4,3-c]pyridin-6-yl)-5-ethynyl-6-fluoronaphthalen-2-ol] | 5.21 |
| C#Cc1c(F)ccc2cc(O)cc(-c3ncc4c([C@H]5[C@@H]6CNC[C@@H]65)nn(CC)c4c3F)c12 [Example 20, 4-(3-((1R,5S,6r)-3-azabicyclo[3.1.0]hexan-6-yl)-1-ethyl-7-fluoro-1H-pyrazolo[4,3-c]pyridin-6-yl)-5-ethynyl-6-fluoronaphthalen-2-ol] | 6.80 |
| C#Cc1c(F)ccc2cc(O)cc(-c3cc4c(cn3)c([C@H]3[C@@H]5CNC[C@@H]53)cn4C)c12 [Example 22, 4-(3-((1R,5S,6s)-3-azabicyclo[3.1.0]hexan-6-yl)-1-methyl-1H-pyrrolo[3,2-c]pyridin-6-yl)-5-ethynyl-6-fluoronaphthalen-2-ol] | 5.79 |
| C#Cc1c(F)ccc2cc(O)cc(-c3ncc4c([C@H]5[C@@H]6CNC[C@@H]65)c(CO)n(C)c4c3F)c12 [Example 23, 4-(3-((1R,5S,6s)-3-azabicyclo[3.1.0]hexan-6-yl)-7-fluoro-2-(hydroxymethyl)-1-methyl-1H-pyrrolo[3,2-c]pyridin-6-yl)-5-ethynyl-6-fluoronaphthalen-2-ol] | 4.86 |
